# In patent US20240043404A1 (AbbVie Inc., priority 2009, published 2024):
# Where two headings read alike, the source gives them in different places.
# System: RS4;11 cells
# Experiment: RS4;11 cell viability assay (CellTiter Glo);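 further: acute lymphoblastic leukemia line RS4,11, EC50 derived from percentage of viable cells after treatment relative to untreated controls, cell killing taken as a measure of Bcl-2 inhibition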
# Type: cell-based, human
# Details: Homo sapiens, read-out: RS4
# [1] = RS4-11, 48 h, 50,000 cells per well, 10% human serum, 48 hours, 11 EC50 Values
# Description: The acute lymphoblastic leukemia (ALL) cell line RS4;11 was used as the primary human cell line to assess the cellular activity of Bcl-2 selective agents in vitro and their efficacy in vivo.
# Cell cytotoxicity EC50 values were assessed using CellTiter Glo (Promega) according to the manufacturer's recommendations. The EC50 values were determined as a percentage of viable cells following treatment compared to the untreated control cells.
EC50 [1],SMILES,"EC50 (RS4-11, Table 4, selected compounds in U.S. Pat. Application No. 12/631404, 11 EC50)"
11.8 nM,"CC1(C)CCC(CN2CCN(c3ccc(C(=O)NS(=O)(=O)c4ccc(N[C@@H]5CCN(CC(F)F)C5)c([N+](=O)[O-])c4)c(Oc4cnc5[nH]ccc5c4)c3)CC2)=C(c2ccc(Cl)cc2)C1 [Example 180, 4-(4-{[2-(4-chlorophenyl)-4,4-dimethylcyclohex-1-en-1-yl]methyl}piperazin-1-yl)-N-[(4-{[(3R)-1-(2,2-difluoroethyl)pyrrolidin-3-yl]amino}-3-nitrophenyl)sulfonyl]-2-(1H-pyrrolo[2,3-b]pyridin-5-yloxy)benzamide]",
108 nM,"CC1(C)CCC(CN2CCN(c3ccc(C(=O)NS(=O)(=O)c4ccc(OCC#CCN5CCOCC5)c([N+](=O)[O-])c4)c(Oc4cnc5[nH]ccc5c4)c3)CC2)=C(c2ccc(Cl)cc2)C1 [Example 68, 4-(4-{[2-(4-chlorophenyl)-4,4-dimethylcyclohex-1-en-1-yl]methyl}piperazin-1-yl)-N-({4-[(4-morpholin-4-ylbut-2-ynyl)oxy]-3-nitrophenyl}sulfonyl)-2-(1H-pyrrolo[2,3-b]pyridin-5-yloxy)benzamide]",
19.7 nM,"CC1(C)CCC(CN2CCN(c3ccc(C(=O)NS(=O)(=O)c4ccc(N[C@H]5CC[C@@H](N6CCOCC6)CC5)c([N+](=O)[O-])c4)c(Oc4cnc5[nH]ccc5c4)c3)CC2)=C(c2ccc(Cl)cc2)C1 [Example 39, Cis-4-(4-{[2-(4-chlorophenyl)-4,4-dimethylcyclohex-1-en-1-yl]methyl}piperazin-1-yl)-N-({4-[(4-morpholin-4-ylcyclohexyl)amino]-3-nitrophenyl}sulfonyl)-2-(1H-pyrrolo[2,3-b]pyridin-5-yloxy)benzamide]",
511 nM,"CC1(C)CCC(c2ccc(Cl)cc2)=C(CN2CCN(c3ccc(C(=O)NS(=O)(=O)c4cnc(OCC5CCOCC5)c(C#N)c4)c(Oc4cnc5[nH]ccc5c4)c3)CC2)C1 [Example 76, 4-(4-{[2-(4-chlorophenyl)-5,5-dimethylcyclohex-1-en-1-yl]methyl}piperazin-1-yl)-N-{[5-cyano-6-(tetrahydro-2H-pyran-4-ylmethoxy)pyridin-3-yl]sulfonyl}-2-(1H-pyrrolo[2,3-b]pyridin-5-yloxy)benzamide]",
8.18 nM,"CC1(C)CCC(CN2CCN(c3ccc(C(=O)NS(=O)(=O)c4cnc(OCC5(F)CCN(C6COC6)CC5)c(Cl)c4)c(Oc4cnc5[nH]ccc5c4)c3)CC2)=C(c2ccc(Cl)cc2)C1 [Example 277, N-[(5-chloro-6-{[4-fluoro-1-(oxetan-3-yl)piperidin-4-yl]methoxy}pyridin-3-yl)sulfonyl]-4-(4-{[2-(4-chlorophenyl)-4,4-dimethylcyclohex-1-en-1-yl]methyl}piperazin-1-yl)-2-(1H-pyrrolo[2,3-b]pyridin-5-yloxy)benzamide]",
12.8 nM,"CC1(C)CCC(CN2CCN(c3ccc(C(=O)NS(=O)(=O)c4ccc(N[C@H]5CCN(C6COC6)C5)c([N+](=O)[O-])c4)c(Oc4cnc5[nH]ccc5c4)c3)CC2)=C(c2ccc(Cl)cc2)C1 [Example 212, 4-(4-{[2-(4-chlorophenyl)-4,4-dimethylcyclohex-1-en-1-yl]methyl}piperazin-1-yl)-N-[(3-nitro-4-{[(3S)-1-oxetan-3-ylpyrrolidin-3-yl]amino}phenyl)sulfonyl]-2-(1H-pyrrolo[2,3-b]pyridin-5-yloxy)benzamide]",
15.3 nM,"CC1(C)CCC(CN2CCN(c3ccc(C(=O)NS(=O)(=O)c4ccc(OC[C@H]5COCCO5)c([N+](=O)[O-])c4)c(Oc4cnc5[nH]ccc5c4)c3)CC2)=C(c2ccc(Cl)cc2)C1 [Example 30, 4-(4-{[2-(4-chlorophenyl)-4,4-dimethylcyclohex-1-en-1-yl]methyl}piperazin-1-yl)-N-({4-[(2R)-1,4-dioxan-2-ylmethoxy]-3-nitrophenyl}sulfonyl)-2-(1H-pyrrolo[2,3-b]pyridin-5-yloxy)benzamide]",
16.8 nM,"CC1(C)CCC(CN2CCN(c3ccc(C(=O)NS(=O)(=O)c4ccc(NC5CCN(C6COC6)CC5)c([N+](=O)[O-])c4)c(Oc4cnc5[nH]ccc5c4)c3)CC2)=C(c2ccc(Cl)cc2)C1 [Example 139, 4-(4-{[2-(4-chlorophenyl)-4,4-dimethylcyclohex-1-en-1-yl]methyl}piperazin-1-yl)-N-({3-nitro-4-[(1-oxetan-3-ylpiperidin-4-yl)amino]phenyl}sulfonyl)-2-(1H-pyrrolo[2,3-b]pyridin-5-yloxy)benzamide]",
106 nM,"CC1(C)CCC(CN2CCN(c3ccc(C(=O)NS(=O)(=O)c4ccc(N[C@H]5CCN(CCF)C5)c([N+](=O)[O-])c4)c(Oc4cnc5[nH]ccc5c4)c3)CC2)=C(c2ccc(Cl)cc2)C1 [Example 181, 4-(4-{[2-(4-chlorophenyl)-4,4-dimethylcyclohex-1-en-1-yl]methyl}piperazin-1-yl)-N-[(4-{[(3S)-1-(2-fluoroethyl)pyrrolidin-3-yl]amino}-3-nitrophenyl)sulfonyl]-2-(1H-pyrrolo[2,3-b]pyridin-5-yloxy)benzamide]",
71.2 nM,"CC1(C)CCC(CN2CCN(c3ccc(C(=O)NS(=O)(=O)c4ccc(OCC5COCCN5C5CCOCC5)c([N+](=O)[O-])c4)c(Oc4cnc5[nH]ccc5c4)c3)CC2)=C(c2ccc(Cl)cc2)C1 (stereo not shown) [Example 104, 4-(4-{[2-(4-chlorophenyl)-4,4-dimethylcyclohex-1-en-1-yl]methyl}piperazin-1-yl)-N-({3-nitro-4-[(4-tetrahydro-2H-pyran-4-ylmorpholin-3-yl)methoxy]phenyl}sulfonyl)-2-(1H-pyrrolo[2,3-b]pyridin-5-yloxy)benzamide]",
114 nM,"CC1(C)CCC(CN2CCN(c3ccc(C(=O)NS(=O)(=O)c4ccc(NCC5CN(C6COC6)CCO5)c(S(=O)(=O)C(F)(F)F)c4)c(Oc4cnc5[nH]ccc5c4)c3)CC2)=C(c2ccc(Cl)cc2)C1 (stereo not shown) [Example 241, 4-(4-{[2-(4-chlorophenyl)-4,4-dimethylcyclohex-1-en-1-yl]methyl}piperazin-1-yl)-N-({4-({[4-(oxetan-3-yl)morpholin-2-yl]methyl}amino)-3-[(trifluoromethyl)sulfonyl]phenyl}sulfonyl)-2-(1H-pyrrolo[2,3-b]pyridin-5-yloxy)benzamide]",
20.4 nM,"CC1(C)CCC(CN2CCN(c3ccc(C(=O)NS(=O)(=O)c4ccc(NC5CCN(C6CCOC(C)(C)C6)CC5)c([N+](=O)[O-])c4)c(Oc4cnc5[nH]ccc5c4)c3)CC2)=C(c2ccc(Cl)cc2)C1 (stereo not shown) [Example 141, 4-(4-{[2-(4-chlorophenyl)-4,4-dimethylcyclohex-1-en-1-yl]methyl}piperazin-1-yl)-N-[(4-{[1-(2,2-dimethyltetrahydro-2H-pyran-4-yl)piperidin-4-yl]amino}-3-nitrophenyl)sulfonyl]-2-(1H-pyrrolo[2,3-b]pyridin-5-yloxy)benzamide]",
7.29 nM,"CC1(C)CCC(CN2CCN(c3ccc(C(=O)NS(=O)(=O)c4ccc(NCC5CN(C6CC6)CCO5)c([N+](=O)[O-])c4)c(Oc4cnc5[nH]ccc5c4)c3)CC2)=C(c2ccc(Cl)cc2)C1 (stereo not shown) [Example 218, 4-(4-{[2-(4-chlorophenyl)-4,4-dimethylcyclohex-1-en-1-yl]methyl}piperazin-1-yl)-N-[(4-{[(4-cyclopropylmorpholin-2-yl)methyl]amino}-3-nitrophenyl)sulfonyl]-2-(1H-pyrrolo[2,3-b]pyridin-5-yloxy)benzamide]",
21.2 nM,"CC1(C)CCC(CN2CCN(c3ccc(C(=O)NS(=O)(=O)c4ccc(N[C@@H]5CCN(C6CC6)C5)c([N+](=O)[O-])c4)c(Oc4cnc5[nH]ccc5c4)c3)CC2)=C(c2ccc(Cl)cc2)C1 [Example 144, 4-(4-{[2-(4-chlorophenyl)-4,4-dimethylcyclohex-1-en-1-yl]methyl}piperazin-1-yl)-N-[(4-{[(3R)-1-cyclopropylpyrrolidin-3-yl]amino}-3-nitrophenyl)sulfonyl]-2-(1H-pyrrolo[2,3-b]pyridin-5-yloxy)benzamide]",
11.8 nM,"CC1(C)CCC(CN2CCN(c3ccc(C(=O)NS(=O)(=O)c4ccc(NC[C@@H]5CC[C@H](O)C5)c([N+](=O)[O-])c4)c(Oc4cnc5[nH]ccc5c4)c3)CC2)=C(c2ccc(Cl)cc2)C1 [Example 159, 4-(4-{[2-(4-chlorophenyl)-4,4-dimethylcyclohex-1-en-1-yl]methyl}piperazin-1-yl)-N-{[4-({[(1R,3S)-3-hydroxycyclopentyl]methyl}amino)-3-nitrophenyl]sulfonyl}-2-(1H-pyrrolo[2,3-b]pyridin-5-yloxy)benzamide]",
17.9 nM,"CC1(C)CCC(CN2CCN(c3ccc(C(=O)NS(=O)(=O)c4ccc(NC[C@H]5CC[C@@H](O)C5)c([N+](=O)[O-])c4)c(Oc4cnc5[nH]ccc5c4)c3)CC2)=C(c2ccc(Cl)cc2)C1 [Example 158, 4-(4-{[2-(4-chlorophenyl)-4,4-dimethylcyclohex-1-en-1-yl]methyl}piperazin-1-yl)-N-{[4-({[(1S,3R)-3-hydroxycyclopentyl]methyl}amino)-3-nitrophenyl]sulfonyl}-2-(1H-pyrrolo[2,3-b]pyridin-5-yloxy)benzamide]",
10.9 nM,"CC1(C)CCC(CN2CCN(c3ccc(C(=O)NS(=O)(=O)c4ccc(NC[C@H]5CC[C@H](O)C5)c([N+](=O)[O-])c4)c(Oc4cnc5[nH]ccc5c4)c3)CC2)=C(c2ccc(Cl)cc2)C1 [Example 157, 4-(4-{[2-(4-chlorophenyl)-4,4-dimethylcyclohex-1-en-1-yl]methyl}piperazin-1-yl)-N-{[4-({[(1S,3S)-3-hydroxycyclopentyl]methyl}amino)-3-nitrophenyl]sulfonyl}-2-(1H-pyrrolo[2,3-b]pyridin-5-yloxy)benzamide]",

SMILES,EC50 [1],"EC50 (RS4-11, Table 4, selected compounds in U.S. Pat. Application No. 12/631404, 11 EC50)"
"CC1(C)CCC(CN2CCN(c3ccc(C(=O)NS(=O)(=O)c4ccc(OCC5COCCO5)c([N+](=O)[O-])c4)c(Oc4ccc5[nH]ccc5c4)c3)CC2)=C(c2ccc(Cl)cc2)C1 (stereo not shown) [Example 92, 4-(4-{[2-(4-chlorophenyl)-4,4-dimethylcyclohex-1-en-1-yl]methyl}piperazin-1-yl)-N-{[4-(1,4-dioxan-2-ylmethoxy)-3-nitrophenyl]sulfonyl}-2-(1H-indol-5-yloxy)benzamide]",80.9 nM,81 nM
